Measured values: patent US20180194799A1, “BETUIN DERIVATIVES FOR PREVENTING OR TREATING HIV INFECTIONS” (GLAXOSMITHKLINE INTELLECTUAL PROPERTY (NO.2) LIMITED, priority 2015, published 2018)
Counter-ions that a name gives are not always drawn.

Key:
V370A = assay: MT4 Cell Antiviral Assay, V370A; type: cell-based, HIV-1; settings: Human immunodeficiency virus 1, MT4, 120 h, read-out: EC50 V370A (nM)
NL4-3 wt = assay: MT4 Cell Antiviral Assay, NL4-3 wt; type: cell-based, HIV-1; settings: Human immunodeficiency virus 1, NL43, 120 h; HIV MT4 Antiviral Cell Assay of Example 17, 5 days incubation
HIV-1 (strain IIIB) = assay: MT4 Cell Antiviral Assay (general statements and standard); type: cell-based; settings: Human immunodeficiency virus 1, IIIB; control and standard in every assay, propidium iodide readout, MT4 cells; read-out: expected range of IC50 values
Experimental: Antiviral HIV activity and compound-induced cytotoxicity were measured in parallel by means of a propidium iodide based procedure in the human T-cell lymphotropic virus transformed cell line MT4. Aliquots of the test compounds were serially diluted in medium (RPMI 1640, 10% fetal calf serum (FCS), and gentamycin) in 96-well plates (Costar 3598) using a Cetus Pro/Pette. Exponentially growing MT4 cells were harvested and centrifuged at 1000 rpm for 10 min in a Jouan centrifuge (model CR 4 12). Cell pellets were resuspended in fresh medium (RPMI 1640, 20% FCS, 20% IL-2, and gentamycin) to a density of 5×10^5 cells/ml. Cell aliquots were infected by the addition of HIV-1 (strain IIIB) diluted to give a viral multiplicity of infection of 100×TCID50. […]
For propidium iodide readout, 27 μl of 5% Nonidet-40 was added to each well of the incubation plate. […]
For MTS readout, 20 μl CellTiter 96 AQ One Solution reagent (Promega #G3582) was added to each well. At 75 minutes following the addition of MTS reagent, absorbance was read at 492 nm using a Tecan Sunrise 96-well plate reader. […]
For each assay plate, the results (relative fluorescence units, rfU, or OD values) of wells containing uninfected cells or infected cells with no compound were averaged, respectively. […] Percent of cells remaining is determined by the following formula: […]

HIV = settings: cited from earlier work

In the case of `COCC(=O)N(CC1CC1)C[C@H](O)[C@@]12CC[C@]3(C)[C@H](CC[C@@H]4[C@@]5(C)CC=C(c6ccc(C(=O)O)cc6)C(C)(C)C5CC[C@]43C)C1=C(C(C)C)C(=O)C2` (stereo in doubt) [Example 2, 4-((3aR,5aR,5bR,7aR,11aS,11bR,13aS)-3a-((R)-2-(N-(cyclopropylmethyl)-2-methoxyacetamido)-1-hydroxyethyl)-1-isopropyl-5a,5b,8,8,11a-pentamethyl-2-oxo-3,3a,4,5,5a,5b,6,7,7a,8,11,11a,11b,12,13,13a-hexadecahydro-2H-cyclopenta[a]chrysen-9-yl)benzoic acid], the EC50 (V370A) is reported as 389 nM and the EC50 (NL4-3 wt) is reported as 15.5 nM.

Compound `CC(C)C1=C2[C@H]3CC[C@@H]4[C@@]5(C)CC=C(c6ccc(C(=O)O)cc6)C(C)(C)C5CC[C@@]4(C)[C@]3(C)CC[C@@]2([C@@H](O)CN(CC2CC2)C(=O)CN2CCCC2)CC1=O` (stereo in doubt) [Example 3, 4-((3aR,5aR,5bR,7aR,11aS,11bR,13aS)-3a-((R)-2-(N-(cyclopropylmethyl)-2-(pyrrolidin-1-yl)acetamido)-1-hydroxyethyl)-1-isopropyl-5a,5b,8,8,11a-pentamethyl-2-oxo-3,3a,4,5,5a,5b,6,7,7a,8,11,11a,11b,12,13,13a-hexadecahydro-2H-cyclopenta[a]chrysen-9-yl)benzoic acid hydrochloride] has an EC50 (V370A) of 6.5 nM and an EC50 (NL4-3 wt) of 2.8 nM.

With `CC(C)C1=C2[C@H]3CC[C@@H]4[C@@]5(C)CC=C(c6ccc(C(=O)O)cc6)C(C)(C)C5CC[C@@]4(C)[C@]3(C)CC[C@@]2([C@@H](O)CN(CC2CC2)C(=O)CN2CCCC2=O)CC1=O` (stereo in doubt) [Example 4, 4-((3aR,5aR,5bR,7aR,11aS,11bR,13aS)-3a-((R)-2-(N-(cyclopropylmethyl)-2-(2-oxopyrrolidin-1-yl)acetamido)-1-hydroxyethyl)-1-isopropyl-5a,5b,8,8,11a-pentamethyl-2-oxo-3,3a,4,5,5a,5b,6,7,7a,8,11,11a,11b,12,13,13a-hexadecahydro-2H-cyclopenta[a]chrysen-9-yl)benzoic acid] the EC50 (V370A) was 1020 nM and the EC50 (NL4-3 wt) was 10.2 nM.

Work on `CC(C)C1=C2[C@H]3CC[C@@H]4[C@@]5(C)CC=C(c6ccc(C(=O)O)cc6)C(C)(C)C5CC[C@@]4(C)[C@]3(C)CC[C@@]2([C@@H](O)CN(CC2CCC2)C(=O)CN2CCCC2)CC1=O` (stereo in doubt) [Example 5, 4-((3aR,5aR,5bR,7aR,11aS,11bR,13aS)-3a-((R)-2-(N-(cyclobutylmethyl)-2-(pyrrolidin-1-yl)acetamido)-1-hydroxyethyl)-1-isopropyl-5a,5b,8,8,11a-pentamethyl-2-oxo-3,3a,4,5,5a,5b,6,7,7a,8,11,11a,11b,12,13,13a-hexadecahydro-2H-cyclopenta[a]chrysen-9-yl)benzoic acid hydrochloride] yielded an EC50 (V370A) of 3.8 nM and an EC50 (NL4-3 wt) of 35.4 nM.

Work on `CC(C)C1=C2[C@H]3CC[C@@H]4[C@@]5(C)CC=C(c6ccc(C(=O)O)cc6)C(C)(C)C5CC[C@@]4(C)[C@]3(C)CC[C@@]2([C@@H](O)CN(CC2CCC2)C(=O)CN(C)C)CC1=O` (stereo in doubt) [Example 6, 4-((3aR,5aR,5bR,7aR,11aS,11bR,13aS)-3a-((R)-2-(N-(cyclobutylmethyl)-2-(dimethylamino)acetamido)-1-hydroxyethyl)-1-isopropyl-5a,5b,8,8,11a-pentamethyl-2-oxo-3,3a,4,5,5a,5b,6,7,7a,8,11,11a,11b,12,13,13a-hexadecahydro-2H-cyclopenta[a]chrysen-9-yl)benzoic acid hydrochloride] yielded an EC50 (V370A) of 8.9 nM and an EC50 (NL4-3 wt) of 3 nM.

In the case of `Cc1cn([C@H]2C[C@H](N=[N+]=[N-])[C@@H](CO)O2)c(=O)[nH]c1=O` [3′-azido-3′-deoxythymidine], the IC50 (HIV-1 (strain IIIB)) is reported as 40 to 120 nM.

For `C=C(C)[C@@H]1CC[C@]2(C(=O)O)CC[C@]3(C)[C@H](CC[C@@H]4[C@@]5(C)CC[C@H](OC(=O)CC(C)(C)C(=O)O)C(C)(C)[C@@H]5CC[C@]43C)[C@@H]12` [Bevirimat], the “HIV viral load reduction (mean)” value (HIV; patients with trough levels >=20 μg/mL and without baseline Gag polymorphisms at Q369, V370 or T371) is listed as 1.3 log10/mL and the “viral load reduction versus patients without Gag polymorphisms” value (HIV; users with Gag polymorphisms at Q369, V370 or T371) is listed as “significantly lower load reductions”.

Work on `CC(C)C1=C2[C@H]3CC[C@@H]4[C@@]5(C)CC=C(c6ccc(C(=O)O)cc6)C(C)(C)[C@@H]5CC[C@@]4(C)[C@]3(C)CC[C@@]2([C@@H](O)CN(CC2CC2)C(=O)CN(C)C)CC1=O` [Example 1, 4-((3aR,5aR,5bR,7aR,11aS,11bR,13aS)-3a-((R)-2-(N-(cyclopropylmethyl)-2-(dimethylamino)acetamido)-1-hydroxyethyl)-1-isopropyl-5a,5b,8,8,11a-pentamethyl-2-oxo-3,3a,4,5,5a,5b,6,7,7a,8,11,11a,11b,12,13,13a-hexadecahydro-2H-cyclopenta[a]chrysen-9-yl)benzoic acid] yielded an EC50 (V370A) of 17 nM and an EC50 (NL4-3 wt) of 3.7 nM.

In the case of `CC(C)C1=C2[C@H]3CC[C@@H]4[C@@]5(C)CC=C(c6ccc(C(=O)O)cc6)C(C)(C)[C@@H]5CC[C@@]4(C)[C@]3(C)CC[C@@]2([C@@H](O)CNCC2CC2)CC1=O` [Example 9, 4-((3aR,5aR,5bR,7aR,11aS,11bR,13aS)-3a-((R)-2-((cyclopropylmethyl)amino)-1-hydroxyethyl)-1-isopropyl-5a,5b,8,8,11a-pentamethyl-2-oxo-3,3a,4,5,5a,5b,6,7,7a,8,11,11a,11b,12,13,13a-hexadecahydro-2H-cyclopenta[a]chrysen-9-yl)benzoic acid hydrochloride], the EC50 (V370A) is reported as 10000 nM and the EC50 (NL4-3 wt) is reported as 69.2 nM.

`CC(C)C1=C2[C@H]3CC[C@@H]4[C@@]5(C)CC=C(c6ccc(C(=O)O)cc6)C(C)(C)[C@@H]5CC[C@@]4(C)[C@]3(C)CC[C@@]2([C@@H](O)CN(CCN(C)C)CC2CC2)CC1=O` [Example 10, 4-((3aR,5aR,5bR,7aR,11aS,11bR,13aS)-3a-((R)-2-((cyclopropylmethyl)(2-(dimethylamino)ethyl)amino)-1-hydroxyethyl)-1-isopropyl-5a,5b,8,8,11a-pentamethyl-2-oxo-3,3a,4,5,5a,5b,6,7,7a,8,11,11a,11b,12,13,13a-hexadecahydro-2H-cyclopenta[a]chrysen-9-yl)benzoic acid hydrochloride] gave an EC50 (V370A) of 7.9 nM and an EC50 (NL4-3 wt) of 7.8 nM.

With `CC(=O)N(CC1CC1)C[C@H](O)[C@@]12CC[C@]3(C)[C@H](CC[C@@H]4[C@@]5(C)CC=C(c6ccc(C(=O)O)cc6)C(C)(C)[C@@H]5CC[C@]43C)C1=C(C(C)C)C(=O)C2` [Example 11, 4-((3aR,5aR,5bR,7aR,11aS,11bR,13aS)-3a-((R)-2-(N-(cyclopropylmethyl)acetamido)-1-hydroxyethyl)-1-isopropyl-5a,5b,8,8,11a-pentamethyl-2-oxo-3,3a,4,5,5a,5b,6,7,7a,8,11,11a,11b,12,13,13a-hexadecahydro-2H-cyclopenta[a]chrysen-9-yl)benzoic acid] the EC50 (V370A) was 24.5 nM and the EC50 (NL4-3 wt) was 39.8 nM.

`COCC(=O)N(CC1CC1)C[C@H](O)[C@@]12CC[C@]3(C)[C@H](CC[C@@H]4[C@@]5(C)CC=C(c6cn(CC(=O)O)nn6)C(C)(C)[C@@H]5CC[C@]43C)C1=C(C(C)C)C(=O)C2` [Example 12, 2-(4-((3aR,5aR,5bR,7aR,11aS,11bR,13aS)-3a-((R)-2-(N-(cyclopropylmethyl)-2-methoxyacetamido)-1-hydroxyethyl)-1-isopropyl-5a,5b,8,8,11a-pentamethyl-2-oxo-3,3a,4,5,5a,5b,6,7,7a,8,11,11a,11b,12,13,13a-hexadecahydro-2H-cyclopenta[a]chrysen-9-yl)-1H-1,2,3-triazol-1-yl)acetic acid hydrochloride] gave an EC50 (V370A) of 15500 nM and an EC50 (NL4-3 wt) of 20400 nM.
